Experimental data taken from patent US11192900B2, “Substituted 1,6-dihydropyridinones and 1,2-dihydroisoquinolinones as bet inhibitors” (NUVATION BIO INC., priority 2018, dated 2021).
pIC50: −log10 of the molar value.

Legend:
[1] = test system: MV-4-11 human acute myeloid leukemia cell line; assay: Second cell viability assay in MV-4-11 (Cell Titer-Glo); type: cell-based; conditions: Homo sapiens; MV4-11, Cell Titer-Glo, 72 hrs; read-out: Cell Viability IC50 in MV4-11 cells
Procedure: The effects of test compounds were studied in a second cell viability assay in the MV-4-11 human acute myeloid leukemia cell line. The cells were harvested during the logarithmic growth period and counted. Cells were seeded at a count of 15000 cells per well/100 μl. After seeding, cells were incubated at 37° C., 5% CO2 for 1 hr. Cells were treated with test compounds at 8 concentrations within a desired concentration range (e.g. 5 nM-[…]) for generation of dose response curves by preparing serial dilutions of the test compound in DMSO which were further diluted with culture medium and then added to each well. The plate was further incubated for another 72 hrs in a humidified incubator at 37° C. and 5% CO2. The assay was terminated by addition of Cell Titer-Glo reagent (Promega, Madison, Wis.) at ¼ the volume of total medium per well. Contents were mixed, the plate was incubated for 10 min at room temperature and luminescence was measured. Cell viability data were plotted using GraphPad Prism (GraphPad Software, Inc., San Diego, Calif.). In addition, a nonlinear regression model with a sigmoidal dose response and variable slope within GraphPad Prism was used to calculate the IC50 value of individual test compounds.

BRD4-2 = BRD4-2 (Homo sapiens (Human), UniProt O60885); assay: Bromodomain and Extraterminal Domain (BET) Binding Assay; conditions: Table 3; read-out: BRD4-2 IC50
Procedure: (§1) The bromodomain binding assays were performed by Reaction Biology Corp., Malvern, Pa., USA (www.reactionbiology.com). The BET binding assays were conducted in 384 well microplates in assay buffer (50 mM HEPES-HCl, pH 7.5, 100 mM NaCl, 1 mg/ml BSA, 0.05% CHAPS, and 0.5% DMSO) with compounds added as DMSO stocks at a single concentration or with 10-point dose response titrations. BET protein or assay buffer were delivered to the appropriate wells of the microplate. Test compound was then delivered by acoustic technology via a Labcyte Echo550 liquid handler. The microplate was centrifuged for 5 min and pre-incubated for 30 min at RT with gentle shaking. The ligand (histone H4 peptide (1-21) K5/8/12/16Ac-biotin) was delivered and the microplate was again centrifuged for 5 min and allowed to incubate for 30 min at RT with gentle shaking. Donor beads were then added in the absence of light and the microplate was centrifuged and gently shaken. After 5 min, acceptor beads were added in the absence of light and the microplate was centrifuged and gently shakenin the dark for 60 min. The microplate was read using a Perkin Elmer EnSpire Alpha plate reader (λEx/λEm=680/520-620 nm). Percent inhibition was calculated relative to positive and negative controls on a per plate basis. For titration experiments, IC50 values were determined by fitting the percent inhibition versus compound concentration.

BRD4-1 = BRD4-1 (Homo sapiens (Human), UniProt O60885); assay: as above; conditions: Table 3; read-out: BRD4-1 IC50
Procedure: as §1

c-Myc = assay: Measurement of c-Myc suppression after washoff (Western blot); type: cell-based, human; conditions: MV4-11, 2 μM for 2 hr, washed, further 6 hr
Procedure: MV4-11 cells were incubated with 2 μM of JQ1, mivebresib or a test compound for 2 hr. The cells were then washed twice with fresh culture medium and further cultured for another 6 hr. Cells were extracted with SDS sample buffers and then subjected to Western blot analysis to measure c-Myc. Compounds 2, 3, 12, 17, 409, 411 and 412 were tested in these assays.

Compound	pIC50 [1]	pIC50 (BRD4-2)	pIC50 (BRD4-1)	c-Myc suppression activity after washoff (c-Myc)
C=CC(=O)Nc1ccc(Oc2c(C)cccc2C)c(-c2cn(C)c(=O)cc2OC(C)C)c1 [Compound 589, N-(4-(2,6-dimethylphenoxy)-3-(4-isopropoxy-1-methyl-6-oxo-1,6-dihydropyridin-3-yl)phenyl)acrylamide]	6.74	7.92	5.14	
C=CS(=O)(=O)Nc1ccc(Oc2ccc(F)cc2F)c(-c2cc(N(C)C)c(=O)n(C)c2)c1 [Compound 16, N-(4-(2,4-difluorophenoxy)-3-(5-(dimethylamino)-1-methyl-6-oxo-1,6-dihydropyridin-3-yl)phenyl)ethenesulfonamide]		7.59	8.22	
C=CC(=O)Nc1ccc(Oc2c(C)cccc2C)c(-c2cn(C)c(=O)cc2OC)c1 [Compound 584, N-(4-(2,6-dimethylphenoxy)-3-(4-methoxy-1-methyl-6-oxo-1,6-dihydropyridin-3-yl)phenyl)acrylamide]	7.48	9.00	6.65	less durable activity
C=CC(=O)Nc1ccc(Oc2c(C)cccc2C)c(-c2cn(C)c(=O)c3sc(C(=O)NCC)cc23)c1 [Compound 381, 4-(5-acrylamido-2-(2,6-dimethylphenoxy)phenyl)-N-ethyl-6-methyl-7-oxo-6,7-dihydrothieno[2,3-c]pyridine-2-carboxamide]	6.76	7.89	4.90	
C=CC(=O)Nc1ccc(Nc2c(C)cccc2C)c(-c2cn(C)c(=O)c3ccccc23)c1 [Compound 313, N-(4-(2,6-dimethylphenylamino)-3-(2-methyl-1-oxo-1,2-dihydroisoquinolin-4-yl)phenyl)acrylamide]		6.05	< 5.00	
C=CC(=O)Nc1ccc(Oc2ccc(F)cc2F)c(-c2cc(NC)c(=O)n(C)c2)c1 [Compound 1, N-(4-(2,4-difluorophenoxy)-3-(1-methyl-5-(methylamino)-6-oxo-1,6-dihydropyridin-3-yl)phenyl)acrylamide]		7.19	6.73	
C/C=C/C(=O)Nc1ccc(Oc2c(C)cccc2C)c(-c2cn(C)c(=O)c3cc(C(=O)NCC)sc23)c1 [Compound 611, (E)-7-(5-but-2-enamido-2-(2,6-dimethylphenoxy)phenyl)-N-ethyl-5-methyl-4-oxo-4,5-dihydrothieno[3,2-c]pyridine-2-carboxamide]		8.70	5.13	
C=CC(=O)Nc1ccc(Oc2c(C)cccc2C)c(-c2cn(C)c(=O)c3ccccc23)c1 [Compound 397, N-(4-(2,6-dimethylphenoxy)-3-(2-methyl-1-oxo-1,2-dihydroisoquinolin-4-yl)phenyl)acrylamide]		6.26	5.01	
C=CC(=O)Nc1ccc(Oc2c(F)cccc2F)c(-c2cn(C)c(=O)c3ccccc23)c1 [Compound 583, N-(4-(2,6-difluorophenoxy)-3-(2-methyl-1-oxo-1,2-dihydroisoquinolin-4-yl)phenyl)acrylamide]	6.60	7.11		
CCS(=O)(=O)Nc1ccc(Oc2ccc(F)cc2F)c(-n2cc(C)c(=O)c3ccccc32)c1 [Compound 616, N-(4-(2,4-difluorophenoxy)-3-(3-methyl-4-oxoquinolin-1(4H)-yl)phenyl) ethanesulfonamide]	7.42	8.40	7.96	
C=CC(=O)Nc1ccc(Oc2ccc(F)cc2)c(-c2cc(NC)c(=O)n(C)c2)c1 [Compound 30, N-(4-(4-fluorophenoxy)-3-(1-methyl-5-(methylamino)-6-oxo-1,6-dihydropyridin-3-yl)phenyl)acrylamide]		7.24	6.98	
C=CC(=O)Nc1ccc(Oc2c(C)cc(F)cc2C)c(-c2cc(NC)c(=O)n(C)c2)c1 [Compound 167, N-(4-(4-fluoro-2,6-dimethylphenoxy)-3-(1-methyl-5-(methylamino)-6-oxo-1,6-dihydropyridin-3-yl)phenyl)acrylamide]	7.01	7.77	6.37	
C=CC(=O)Nc1ccc(Oc2c(C)cc(F)cc2C)c(-c2cn(C)c(=O)c3ccccc23)c1 [Compound 408, N-(4-(4-fluoro-2,6-dimethylphenoxy)-3-(2-methyl-1-oxo-1,2-dihydroisoquinolin-4-yl)phenyl)acrylamide]		6.36	4.80	
C#CC(=O)Nc1ccc(Oc2ccc(F)cc2F)c(-c2cc(NC)c(=O)n(C)c2)c1 [Compound 2, N-(4-(2,4-difluorophenoxy)-3-(1-methyl-5-(methylamino)-6-oxo-1,6-dihydropyridin-3-yl)phenyl)propiolamide]		6.93	7.28	less durable or no suppression activity
CCS(=O)(=O)Nc1ccc(Oc2ccc(F)cc2F)c(-c2cn(C)c(=O)c3[nH]ccc23)c1 [mivebresib, reference compound]				rebound in c-Myc expression
C=CC(=O)Nc1ccc(Oc2ccc(F)cc2F)c(-c2cc(N(C)C)c(=O)n(C)c2)c1 [Compound 29, N-(4-(2,4-difluorophenoxy)-3-(5-(dimethylamino)-1-methyl-6-oxo-1,6-dihydropyridin-3-yl)phenyl)acrylamide]		7.82	7.52	
C=CS(=O)(=O)Nc1ccc(Oc2ccc(OC)cc2)c(-c2cn(C)c(=O)c3ccccc23)c1 [Compound 12, N-(4-(4-methoxyphenoxy)-3-(2-methyl-1-oxo-1,2-dihydroisoquinolin-4-yl)phenyl)ethenesulfonamide]		7.43		less durable or no suppression activity
C=CC(=O)Nc1ccc(Nc2ccc(F)cc2F)c(-c2cn(C)c(=O)c3ccccc23)c1 [Compound 305, N-(4-(2,4-difluorophenylamino)-3-(2-methyl-1-oxo-1,2-dihydroisoquinolin-4-yl)phenyl)acrylamide]		5.66	5.77	
C=CS(=O)(=O)Nc1ccc(Oc2ccc(F)cc2F)c(-c2cc(N)c(=O)n(C)c2)c1 [Compound 17, N-(3-(5-amino-1-methyl-6-oxo-1,6-dihydropyridin-3-yl)-4-(2,4-difluorophenoxy)phenyl)ethenesulfonamide]	7.08	6.92		sustained c-Myc suppression activity
C#CC(=O)Nc1ccc(Oc2c(C)cccc2C)c(-c2cn(C)c(=O)c3cc(C(=O)NCC)sc23)c1 [Compound 587, 7-(2-(2,6-dimethylphenoxy)-5-propiolamidophenyl)-N-ethyl-5-methyl-4-oxo-4,5-dihydrothieno[3,2-c]pyridine-2-carboxamide]	7.35	7.96		
C/C=C/S(=O)(=O)Nc1ccc(Oc2ccc(F)cc2F)c(-c2cn(C)c(=O)c3ccccc23)c1 [Compound 86, (E)-N-(4-(2,4-difluorophenoxy)-3-(2-methyl-1-oxo-1,2-dihydroisoquinolin-4-yl)phenyl)prop-1-ene-1-sulfonamide]	6.56	7.10		
C=CC(=O)Nc1ccc(Oc2ccc(F)cc2F)c(-n2cc(C)c(=O)c3ccccc32)c1 [Compound 613, N-(4-(2,4-difluorophenoxy)-3-(3-methyl-4-oxoquinolin-1(4H)-yl)phenyl)acrylamide]	5.22	7.57		
C#CC(=O)Nc1ccc(Oc2ccc(F)cc2F)c(-c2cn(C)c(=O)c3ccccc23)c1 [Compound 74, N-(4-(2,4-difluorophenoxy)-3-(2-methyl-1-oxo-1,2-dihydroisoquinolin-4-yl)phenyl)propiolamide]		6.62		
C=CC(=O)Nc1ccc(N(C)c2ccc(F)cc2F)c(-c2cn(C)c(=O)c3sc(C(=O)NCC)cc23)c1 [Compound 612, 4-(5-acrylamido-2-((2,4-difluorophenyl)(methyl)amino)phenyl)-N-ethyl-6-methyl-7-oxo-6,7-dihydrothieno[2,3-c]pyridine-2-carboxamide]		< 5.00		
C=CC(=O)Nc1ccc(OC(F)(F)F)c(-c2cn(C)c(=O)c3ccccc23)c1 [Compound 27, N-(3-(2-methyl-1-oxo-1,2-dihydroisoquinolin-4-yl)-4-(trifluoromethoxy)phenyl)acrylamide]		5.49		
